Experimental data reported in patent US12024707B2, “Methods and compositions for modulating lncRNAs and methods of treatment based on lncRNA expression” (Washington University, priority 2020, dated 2024).
Several values for one entry are separate records, joined by “and”; a condition that tells them apart may be missing. Identical values can stand only once. Like-named read-outs stand apart in the source and are kept apart here.

System: HT29 RAMS11 overexpressing cells
Assay: High-throughput viability assay (resazurin), 119 FDA-approved anticancer drugs, RAMS11 overexpressing cells (Clone1, Clone2)
Conditions: for increase in cellular viability compared with empty vector control cell line: HT29 RAMS11 overexpressing vs empty vector cells, treated 72 h
[1] = OE1 (RAMS11 overexpression clone 1), 0.1 uM drug, 72 h, vs empty vector control
[2] = OE1 (RAMS11 overexpression clone 1), 1 uM drug, 72 h, vs empty vector control
[3] = OE1 (RAMS11 overexpression clone 1), 10 uM drug, 72 h, vs empty vector control
[4] = OE2 (RAMS11 overexpression clone 2), 0.1 uM drug, 72 h, vs empty vector control
[5] = OE2 (RAMS11 overexpression clone 2), 1 uM drug, 72 h, vs empty vector control
[6] = OE2 (RAMS11 overexpression clone 2), 10 uM drug, 72 h, vs empty vector control

Method: The FDA-approved anticancer panel included multiple classes of drugs such as kinase inhibitors, alkylating agents, antineoplastic antibiotics, anthracycline antibiotics, and antineoplastic agents (topoisomerase inhibitors). The HT29 RAMS11 overexpressing and control cells were treated for 72 h to assess cellular viability upon drug treatment (FIG. 14a and TABLE 3). […] Due to 5-FU commonly used to treat mCRC, we further determined if RAMS11 expression altered drug sensitivity in treated cells.
Drugs were diluted in DMSO to 1 mM and the well assignments were rearranged so drugs were confined to the inner 60 wells of 96-well plates. […] The next day serial diluted drug was added to pre-seeded plates in media containing 1% DMSO vehicle, using a Robbins Hydra 96 micro dispenser. Two 96-well plates of cells were used as vehicle controls. The plates were incubated for 3 days. Percent viability was scored by incubating cells for 3 h with resazurin sodium (0.023 mg/mL, Sigma R7017). The reaction was stopped by the addition of SDS (1% final concentration). Fluorescence Ex/Em 540/590 was read in a Biotek Synergy H1 plate reader (Winooski, VT). The fluorescence values for the vehicle plates were averaged and percent viability was determined by the formula: Percent viability=(average vehicle−value)/(average vehicle−average resazurin in media blank)×100. […] Assays were repeated more than three times.

O=NN(CCCl)C(=O)NC1CCCCC1 [Lomustine]
Viability Fold Change [1]: 0.9969
Viability Fold Change [2]: 1.03
Viability Fold Change [3]: 1.027
Viability Fold Change [4]: 0.991
Viability Fold Change [5]: 1.111
Viability Fold Change [6]: 0.9646

O=c1[nH]c(=O)n([C@H]2C[C@H](O)[C@@H](CO)O2)cc1F [floxuridine, reference compound]
increase in cellular viability compared with empty vector control cell line: greatest resistance
Viability Fold Change [1]: 1.541
Viability Fold Change [2]: 2.291
Viability Fold Change [3]: 2.964
Viability Fold Change [4]: 1.569
Viability Fold Change [5]: 2.375
Viability Fold Change [6]: 3.091

C1CN1c1nc(N2CC2)nc(N2CC2)n1 [Triethylenemelamine]
Viability Fold Change: 1.287 and 1.238 and 0.9974 and 1.295 and 1.284 and 1.013

O=C1CCC(N2C(=O)c3ccccc3C2=O)C(=O)N1 (centres unmarked) [Thalidomide]
Viability Fold Change [1]: 0.9251
Viability Fold Change [2]: 0.9878
Viability Fold Change [3]: 0.9064
Viability Fold Change [4]: 0.8995
Viability Fold Change [5]: 1
Viability Fold Change [6]: 1.074

C[C@@H](Oc1cc(-c2cnn(C3CCNCC3)c2)cnc1N)c1c(Cl)ccc(F)c1Cl [Crizotinib]
Viability Fold Change [1]: 0.9595
Viability Fold Change [2]: 1.07
Viability Fold Change [3]: 0.9127
Viability Fold Change [4]: 0.9806
Viability Fold Change [5]: 1.093
Viability Fold Change [6]: 0.8562

Cc1nc(Nc2ncc(C(=O)Nc3c(C)cccc3Cl)s2)cc(N2CCN(CCO)CC2)n1 [Dasatinib]
Viability Fold Change [1]: 0.7242
Viability Fold Change [2]: 1.289
Viability Fold Change [3]: 1.518
Viability Fold Change [4]: 0.7852
Viability Fold Change [5]: 1.567
Viability Fold Change [6]: 1.607

CCCS(=O)(=O)Nc1ccc(F)c(C(=O)c2c[nH]c3ncc(-c4ccc(Cl)cc4)cc23)c1F [Vemurafenib]
Viability Fold Change [1]: 0.6921
Viability Fold Change [2]: 0.4381
Viability Fold Change [3]: 0.569
Viability Fold Change [4]: 0.762
Viability Fold Change [5]: 0.5468
Viability Fold Change [6]: 0.6144

N.N.O=C([O-])C1(C(=O)[O-])CCC1.[Pt+2] [Carboplatin]
Viability Fold Change [1]: 1.016
Viability Fold Change [2]: 1.047
Viability Fold Change [3]: 1.103
Viability Fold Change [4]: 0.9697
Viability Fold Change [5]: 1.074
Viability Fold Change [6]: 0.9969

Bleomycin
Viability Fold Change [1]: 0.921
Viability Fold Change [2]: 1.039
Viability Fold Change [3]: 1.025
Viability Fold Change [4]: 0.96

CS(=O)(=O)OCCCCOS(C)(=O)=O [Busulfan]
Viability Fold Change [1]: 1.001
Viability Fold Change [2]: 0.9365
Viability Fold Change [3]: 0.8448
Viability Fold Change [4]: 0.977
Viability Fold Change [5]: 0.9369
Viability Fold Change [6]: 0.871

Oc1ncc(N(CCCl)CCCl)c(O)n1 [Uracil mustard]
Viability Fold Change: 0.8306 and 1.02 and 0.9705 and 0.9647 and 1.048 and 0.932

C/C=C1\NC(=O)[C@H]2CSSCC/C=C/[C@H](CC(=O)N[C@H](C(C)C)C(=O)N2)OC(=O)[C@H](C(C)C)NC1=O [Romidepsin]
Viability Fold Change [1]: 6.243
Viability Fold Change [2]: 5.327
Viability Fold Change [3]: 4.427
Viability Fold Change [4]: 6.211
Viability Fold Change [5]: 5.577
Viability Fold Change [6]: 4.697

CCCCCOC(=O)Nc1nc(=O)n([C@@H]2O[C@H](C)[C@@H](O)[C@H]2O)cc1F [Capecitabine]
Viability Fold Change [1]: 1.291
Viability Fold Change [2]: 0.7939
Viability Fold Change [3]: 0.9609
Viability Fold Change [4]: 1.102
Viability Fold Change [5]: 0.8093
Viability Fold Change [6]: 1.166

Nc1ccn([C@@H]2O[C@H](CO)[C@@H](O)C2(F)F)c(=O)n1 [gemcitabine, reference compound]
increase in cellular viability compared with empty vector control cell line: greatest resistance
Viability Fold Change [2]: 3.429
Viability Fold Change [3]: 2.39
Viability Fold Change [4]: 1.507
Viability Fold Change [5]: 3.028
Viability Fold Change [6]: 2.499

COC(=O)C[C@](O)(CCCC(C)(C)O)C(=O)O[C@@H]1C(OC)=C[C@]23CCCN2CCc2cc4c(cc2[C@H]13)OCO4 [Omacetaxine mepesuccinate]
Viability Fold Change [1]: 1.354
Viability Fold Change [2]: 1.614
Viability Fold Change [3]: 1.606
Viability Fold Change [4]: 1.376
Viability Fold Change [5]: 1.468
Viability Fold Change [6]: 1.436

S=P(N1CC1)(N1CC1)N1CC1 [Thiotepa]
Viability Fold Change: 0.7908 and 0.9826 and 0.9401 and 0.9694 and 0.9433 and 0.8817

CC(=O)O[C@@]12CO[C@@H]1C[C@H](O)[C@@]1(C)C(=O)[C@H](O)C3=C(C)[C@@H](OC(=O)[C@H](O)[C@@H](NC(=O)OC(C)(C)C)c4ccccc4)C[C@@](O)([C@@H](OC(=O)c4ccccc4)[C@H]21)C3(C)C [Docetaxel]
Viability Fold Change [1]: 2.831
Viability Fold Change [2]: 2.996
Viability Fold Change [3]: 2.894
Viability Fold Change [4]: 2.726
Viability Fold Change [5]: 2.845
Viability Fold Change [6]: 2.869

CN(C)/N=N/c1[nH]cnc1C(N)=O [Dacarbazine]
Viability Fold Change [1]: 1.078
Viability Fold Change [2]: 0.9877
Viability Fold Change [3]: 0.983
Viability Fold Change [4]: 1.084
Viability Fold Change [5]: 1.028
Viability Fold Change [6]: 0.9794

NCCCNCCSP(=O)(O)O [Amifostine]
Viability Fold Change [1]: 0.9539
Viability Fold Change [2]: 1.024
Viability Fold Change [3]: 1.063
Viability Fold Change [4]: 0.99
Viability Fold Change [5]: 1.063
Viability Fold Change [6]: 1.167

c1cc(CN2CCCNCCNCCCNCC2)ccc1CN1CCCNCCNCCCNCC1 [Plerixafor]
Viability Fold Change [1]: 0.9866
Viability Fold Change [2]: 1.152
Viability Fold Change [3]: 1.057
Viability Fold Change [4]: 1.085
Viability Fold Change [5]: 1.208
Viability Fold Change [6]: 1.062

CCCCC(=O)OCC(=O)[C@]1(O)Cc2c(O)c3c(c(O)c2[C@@H](O[C@H]2C[C@H](NC(=O)C(F)(F)F)[C@H](O)[C@H](C)O2)C1)C(=O)c1c(OC)cccc1C3=O [Valrubicin]
Viability Fold Change [1]: 0.9645
Viability Fold Change [2]: 1.163
Viability Fold Change [3]: 1.863
Viability Fold Change [4]: 0.9166
Viability Fold Change [5]: 1.213
Viability Fold Change [6]: 1.792

C[C@]12CC[C@@H]3c4ccc(OC(=O)N(CCCl)CCCl)cc4CC[C@H]3[C@@H]1CC[C@@H]2O [Estramustine]
Viability Fold Change [1]: 0.97
Viability Fold Change [2]: 1.105
Viability Fold Change [3]: 1.034
Viability Fold Change [4]: 0.951
Viability Fold Change [5]: 1.223
Viability Fold Change [6]: 1.025

OC[C@H]1O[C@@H](n2cnc3c2NC=NC[C@H]3O)C[C@@H]1O [Pentostatin]
Viability Fold Change [1]: 0.9312
Viability Fold Change [2]: 0.9502
Viability Fold Change [3]: 0.8658
Viability Fold Change [4]: 0.9287
Viability Fold Change [5]: 0.9777
Viability Fold Change [6]: 1.078

CC(C)(C#N)c1cc(Cn2cncn2)cc(C(C)(C)C#N)c1 [Anastrozole]
Viability Fold Change [1]: 0.876
Viability Fold Change [2]: 0.9957
Viability Fold Change [3]: 0.9385
Viability Fold Change [4]: 0.9749
Viability Fold Change [5]: 1.001
Viability Fold Change [6]: 0.9255

CNC(=O)c1cc(Oc2ccc(NC(=O)Nc3ccc(Cl)c(C(F)(F)F)c3)c(F)c2)ccn1 [Regorafenib]
Viability Fold Change [1]: 0.938
Viability Fold Change [2]: 0.9476
Viability Fold Change [3]: 1.158
Viability Fold Change [4]: 0.9919
Viability Fold Change [5]: 1.09
Viability Fold Change [6]: 1.143
